Reference: ChEMBL document CHEMBL5260810, “Inhibition of bromodomain-containing protein 9 for the prevention of epigenetically-defined drug resistance” (Bioorg Med Chem Lett, 2017)
In brackets after ≈: the same amount, converted by molar mass. Activity calls are given as the source filed them. No cut-off for these calls is given here.

Experiments:
NCI-H460 = assay: Antiproliferative activity against human NCI-H460 cells assessed as reduction in colony formation up to 20 uM supplemented with fresh medium containing compound every 3 days for 9 days by MTT staining based clonogenic assay; assay type: functional, cell-based; conditions: time 9.0 day
NCI-H1299 = assay: Antiproliferative activity against human NCI-H1299 cells assessed as reduction in colony formation up to 20 uM supplemented with fresh medium containing compound every 3 days for 9 days by MTT staining based clonogenic assay; assay type: functional, cell-based; conditions: time 9.0 day
Capan-2 = assay: Antiproliferative activity against human Capan-2 cells assessed as reduction in colony formation up to 20 uM supplemented with fresh medium containing compound every 3 days for 9 days by MTT staining based clonogenic assay; assay type: functional, cell-based; conditions: time 9.0 day
HCC1954 = assay: Antiproliferative activity against human HCC1954 cells assessed as reduction in colony formation upto 20 uM supplemented with fresh medium containing compound every 3 days for 9 days by MTT staining based clonogenic assay; assay type: functional, cell-based; conditions: time 9.0 day
BT-549 = assay: Antiproliferative activity against human BT-549 cells assessed as reduction in colony formation up to 20 uM supplemented with fresh medium containing compound every 3 days for 9 days by MTT staining based clonogenic assay; assay type: functional, cell-based; conditions: time 9.0 day
A-375 = assay: Antiproliferative activity against human A-375 cells assessed as reduction in colony formation up to 20 uM supplemented with fresh medium containing compound every 3 days for 9 days by MTT staining based clonogenic assay; assay type: functional, cell-based; conditions: time 9.0 day
HMV-2 cell line = assay: Antiproliferative activity against human HMV-2 cell line assessed as reduction in colony formation up to 20 uM supplemented with fresh medium containing compound every 3 days for 9 days by MTT staining based clonogenic assay; assay type: functional; conditions: time 9.0 day
THP-1 = assay: Cytotoxicity against human THP-1 cells measured after 8 days; assay type: functional, cell-based; conditions: THP-1, 192 h
GABA-B receptor = GABA-B receptor (Homo sapiens, UniProt O75899+Q9UBS5); assay: Inhibition of human GABA-B receptor at 10 uM relative to control; assay type: protein-complex assay
[1] = Kinetic solubility of the compound; assay type: physicochemical; conditions: read-out: Kinetic_solubility
Jurkat = assay: Cytotoxicity against human Jurkat cells measured after 3 days; assay type: functional, cell-based; conditions: 72 h
KARPAS-422 = assay: Cytotoxicity against human KARPAS-422 cells measured after 3 days; assay type: functional, cell-based; conditions: KARPAS-422, 72 h
[2] = Cytotoxicity against human KMS-27 cells measured after 3 days; assay type: functional, cell-based; conditions: KMS-27, 72 h
[3] = Cytotoxicity against human KMS-34 cells measured after 3 days; assay type: functional, cell-based; conditions: KMS-34, 72 h
MOLM-13 = assay: Cytotoxicity against human MOLM-13 cells measured after 3 days; assay type: functional, cell-based; conditions: MOLM-13, 72 h
[4] = Cytotoxicity against human OCI-M1 cells measured after 3 days; assay type: functional, cell-based; conditions: OCI-M1, 72 h
Raji = assay: Cytotoxicity against human Raji cells measured after 3 days; assay type: functional, cell-based; conditions: 72 h
SET-2 = assay: Cytotoxicity against human SET2 cells measured after 3 days; assay type: functional, cell-based; conditions: SET-2, 72 h
SKM-1 = assay: Cytotoxicity against human SKM-1 cells measured after 3 days; assay type: functional, cell-based; conditions: SKM-1, 72 h
TK-10 = assay: Cytotoxicity against human TK-10 cells measured after 3 days; assay type: functional, cell-based; conditions: TK-10, 72 h
HLE = assay: Cytotoxicity against human HLE cells measured after 3 days; assay type: functional, cell-based; conditions: 72 h
[5] = Cytotoxicity against human JHH-1 cells measured after 3 days; assay type: functional, cell-based; conditions: JHH1, 72 h
[6] = Cytotoxicity against human Li-7 cells measured after 3 days; assay type: functional, cell-based; conditions: Li-7, 72 h
SNU-449 = assay: Cytotoxicity against human SNU-449 cells measured after 3 days; assay type: functional, cell-based; conditions: SNU-449, 72 h
NCI-H520 = assay: Cytotoxicity against human NCI-H520 cells measured after 3 days; assay type: functional, cell-based; conditions: NCI-H520, 72 h
[7] = Cytotoxicity against human MOR cells measured after 3 days; assay type: functional, cell-based; conditions: 72 h
[8] = Cytotoxicity against human PL-21 cells measured after 3 days; assay type: functional, cell-based; conditions: PL-21, 72 h
[9] = Cytotoxicity against human Karpas-620 cells measured after 3 days; assay type: functional, cell-based; conditions: Karpas-620, 72 h
[10] = Cytotoxicity against human NCE-G 111 cells measured after 3 days; assay type: functional, cell-based; conditions: NCE-G 111, 72 h
[11] = Cytotoxicity against human NCE-G 112 cells measured after 3 days; assay type: functional, cell-based; conditions: NCE-G 112, 72 h
T98G = assay: Cytotoxicity against human T98G cells measured after 3 days; assay type: functional, cell-based; conditions: 72 h
Granta-519 = assay: Cytotoxicity against human Granta-519 cells measured after 3 days; assay type: functional, cell-based; conditions: Granta-519, 72 h
HT = assay: Cytotoxicity against human HT cells measured after 3 days; assay type: functional, cell-based; conditions: 72 h
[12] = Cytotoxicity against human Sc-1 cells measured after 3 days; assay type: functional, cell-based; conditions: SC-1, 72 h
JeKo-1 = assay: Cytotoxicity against human JeKo-1 cells measured after 3 days; assay type: functional, cell-based; conditions: JeKo-1, 72 h
Rec1 = assay: Cytotoxicity against human REC1 cells measured after 3 days; assay type: functional, cell-based; conditions: Rec1, 72 h
RL = assay: Cytotoxicity against human RL cells measured after 3 days; assay type: functional, cell-based; conditions: 72 h
SK-OV-3 = assay: Cytotoxicity against human SK-OV-3 cells measured after 3 days; assay type: functional, cell-based; conditions: SK-OV-3, 72 h
MX1 = assay: Cytotoxicity against human MX1 cells measured after 3 days; assay type: functional, cell-based; conditions: MX1, 72 h
YMB-1-E = assay: Cytotoxicity against human YMB-1-E cells measured after 3 days; assay type: functional, cell-based; conditions: 72 h
MDA-MB-361 = assay: Cytotoxicity against human MDA-MB-361 cells measured after 3 days; assay type: functional, cell-based; conditions: MDA-MB-361, 72 h
[13] = Cytotoxicity against human SW527 cells measured after 3 days; assay type: functional, cell-based; conditions: SW527, 72 h
SK-BR-3 = assay: Cytotoxicity against human SK-BR-3 cells measured after 3 days; assay type: functional, cell-based; conditions: SK-BR-3, 72 h
HCC1395 [14] = assay: Cytotoxicity against human HCC1395 cells measured after 3 days; assay type: functional, cell-based; conditions: HCC1395, 72 h
TOV112D = assay: Cytotoxicity against human TOV112D cells measured after 3 days; assay type: functional, cell-based; conditions: 72 h
OV-90 = assay: Cytotoxicity against human OV-90 cells measured after 3 days; assay type: functional, cell-based; conditions: OV-90, 72 h
OVCAR-5 = assay: Cytotoxicity against human OVCAR-5 cells measured after 3 days; assay type: functional, cell-based; conditions: OVCAR-5, 72 h
[15] = Cytotoxicity against human OVSAHO cells measured after 3 days; assay type: functional, cell-based; conditions: 72 h
MEL-HO = assay: Cytotoxicity against human MEL-HO cells measured after 3 days; assay type: functional, cell-based; conditions: 72 h
[16] = Cytotoxicity against human COLO-704 cells measured after 3 days; assay type: functional, cell-based; conditions: COLO 704, 72 h
[17] = Cytotoxicity against human NTERA-2 cells after 8 days; assay type: functional, cell-based; conditions: NTERA2, 192 h
[18] = Cytotoxicity against human NCI-H1568 cells after 8 days; assay type: functional, cell-based; conditions: NCI-H1568, 192 h
[19] = Cytotoxicity against human EFM-192C cells measured after 8 days; assay type: functional, cell-based; conditions: 192 h
HCC1395 [20] = assay: Cytotoxicity against human HCC1395 cells measured after 8 days; assay type: functional, cell-based; conditions: HCC1395, 192 h
CWR22R = assay: Cytotoxicity against human 22Rv1 cells after 8 days; assay type: functional, cell-based; conditions: 22Rv1, 192 h
[21] = Cytotoxicity against human 537-mel cells after 8 days; assay type: functional, cell-based; conditions: 192 h
Calu-6 = assay: Cytotoxicity against human Calu-6 cells after 8 days; assay type: functional, cell-based; conditions: Calu-6, 192 h

GABA-B receptor, sequence (Q9UBS5 whole entry): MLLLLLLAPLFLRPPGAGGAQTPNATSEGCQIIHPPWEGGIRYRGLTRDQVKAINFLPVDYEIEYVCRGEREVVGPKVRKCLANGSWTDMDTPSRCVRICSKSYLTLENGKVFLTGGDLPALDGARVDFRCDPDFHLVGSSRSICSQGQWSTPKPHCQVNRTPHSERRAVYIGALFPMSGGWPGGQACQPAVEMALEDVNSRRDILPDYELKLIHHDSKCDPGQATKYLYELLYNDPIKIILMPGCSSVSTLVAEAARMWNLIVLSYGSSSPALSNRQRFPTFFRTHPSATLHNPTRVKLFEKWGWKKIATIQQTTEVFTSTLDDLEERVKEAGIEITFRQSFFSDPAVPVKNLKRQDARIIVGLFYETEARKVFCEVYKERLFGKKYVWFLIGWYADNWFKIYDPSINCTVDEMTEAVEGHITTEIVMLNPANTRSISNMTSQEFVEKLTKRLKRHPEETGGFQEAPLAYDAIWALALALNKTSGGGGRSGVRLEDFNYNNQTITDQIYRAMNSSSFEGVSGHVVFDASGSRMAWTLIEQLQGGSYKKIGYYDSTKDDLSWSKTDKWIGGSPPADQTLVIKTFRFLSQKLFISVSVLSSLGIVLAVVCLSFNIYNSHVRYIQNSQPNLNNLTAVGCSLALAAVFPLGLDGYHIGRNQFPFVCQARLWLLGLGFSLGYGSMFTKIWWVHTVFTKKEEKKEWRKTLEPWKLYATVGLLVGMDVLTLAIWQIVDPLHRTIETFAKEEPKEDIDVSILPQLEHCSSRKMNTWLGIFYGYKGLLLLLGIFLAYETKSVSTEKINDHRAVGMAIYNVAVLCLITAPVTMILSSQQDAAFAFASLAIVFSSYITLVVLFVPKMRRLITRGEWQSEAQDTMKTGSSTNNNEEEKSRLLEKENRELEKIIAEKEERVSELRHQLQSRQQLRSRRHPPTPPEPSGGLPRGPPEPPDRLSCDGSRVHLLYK
GABA-B receptor, sequence (O75899 whole entry): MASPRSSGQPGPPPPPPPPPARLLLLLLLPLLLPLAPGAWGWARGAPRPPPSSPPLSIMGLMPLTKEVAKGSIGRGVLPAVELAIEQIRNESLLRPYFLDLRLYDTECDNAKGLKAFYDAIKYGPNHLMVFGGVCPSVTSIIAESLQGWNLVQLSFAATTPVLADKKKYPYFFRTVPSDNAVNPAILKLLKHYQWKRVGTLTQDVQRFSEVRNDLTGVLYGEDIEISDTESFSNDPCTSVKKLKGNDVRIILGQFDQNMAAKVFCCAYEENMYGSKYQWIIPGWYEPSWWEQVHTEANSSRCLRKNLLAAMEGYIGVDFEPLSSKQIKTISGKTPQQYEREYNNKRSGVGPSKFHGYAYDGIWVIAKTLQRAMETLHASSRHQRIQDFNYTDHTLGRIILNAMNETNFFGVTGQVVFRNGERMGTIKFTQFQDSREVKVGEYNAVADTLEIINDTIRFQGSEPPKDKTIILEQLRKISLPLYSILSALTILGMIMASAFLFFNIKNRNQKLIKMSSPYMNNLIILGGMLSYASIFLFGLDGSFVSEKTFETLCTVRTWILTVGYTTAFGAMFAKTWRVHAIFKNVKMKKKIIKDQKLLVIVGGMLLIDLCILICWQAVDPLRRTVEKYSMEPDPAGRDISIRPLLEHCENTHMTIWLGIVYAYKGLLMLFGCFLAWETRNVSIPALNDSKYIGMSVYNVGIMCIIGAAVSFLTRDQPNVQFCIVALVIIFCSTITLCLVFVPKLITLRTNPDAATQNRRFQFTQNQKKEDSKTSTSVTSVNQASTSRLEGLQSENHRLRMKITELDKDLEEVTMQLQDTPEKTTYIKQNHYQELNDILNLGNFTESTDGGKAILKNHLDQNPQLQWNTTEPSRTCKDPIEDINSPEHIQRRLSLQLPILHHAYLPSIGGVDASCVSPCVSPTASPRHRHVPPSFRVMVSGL

C/C=C/Cn1cc(-c2ccc(C(C)(C)O)cc2OC)c2cc[nH]c2c1=O
Activity (NCI-H460): inactive | Activity (NCI-H1299): inactive | Activity (Capan-2): inactive | Activity (HCC1954): Active | Activity (BT-549): inactive | Activity (A-375): inactive | Activity (HMV-2 cell line): inactive | IC50 (THP-1): 16.2 µM | IC50 (GABA-B receptor): 4 µM

C/C=C/Cn1cc(-c2cc(OC)c(C(=O)N3CCOCC3)cc2OC)c2cc(C)[nH]c2c1=O
solubility kinetic [1]: 135 µM (≈ 61 µg/mL) | IC50 (Jurkat): 5 µM | IC50 (KARPAS-422): 5 µM | IC50 [2]: 5 µM | IC50 [3]: 5 µM | IC50 (MOLM-13): 5 µM | IC50 [4]: 5 µM | IC50 (Raji): 5 µM | IC50 (SET-2): 5 µM | IC50 (SKM-1): 5 µM | IC50 (TK-10): 5 µM | IC50 (HLE): 5 µM | IC50 [5]: 5 µM | IC50 [6]: 5 µM | IC50 (SNU-449): 5 µM | IC50 (NCI-H520): 5 µM | IC50 [7]: 5 µM | IC50 [8]: 5 µM | IC50 [9]: 5 µM | IC50 [10]: 5 µM | IC50 [11]: 5 µM | IC50 (T98G): 5 µM | IC50 (Granta-519): 5 µM | IC50 (HT): 5 µM | IC50 [12]: 5 µM | IC50 (JeKo-1): 5 µM | IC50 (Rec1): 5 µM | IC50 (RL): 5 µM | IC50 (SK-OV-3): 5 µM | IC50 (MX1): 5 µM | IC50 (YMB-1-E): 5 µM | IC50 (MDA-MB-361): 5 µM | IC50 [13]: 5 µM | IC50 (SK-BR-3): 5 µM | IC50 (HCC1395 [14]): 5 µM | IC50 (TOV112D): 5 µM | IC50 (OV-90): 5 µM | IC50 (OVCAR-5): 5 µM | IC50 [15]: 5 µM | IC50 (MEL-HO): 5 µM | IC50 [16]: 5 µM | IC50 [17]: 2 µM | IC50 [18]: 2 µM | IC50 [19]: 2 µM | IC50 (HCC1395 [20]): 2 µM | IC50 (CWR22R): 2 µM | IC50 [21]: 2 µM | IC50 (Calu-6): 2 µM
